Values joined by “and” are separate entries in the source; they are usually repeats but may differ in a detail not shown here. Equal entries are not always repeated. Where two headings read alike, the source gives them in different places.
How the values were obtained:
broilers = details: in vivo
CYP2A6 [1] = test: in vitro; details: read-out: IC50 for CYP2A6
Method: (§1) A cocktail-approach for elucidating the metabolites profiling and CYP450 inhibition was conducted as in Lin et al. with minor changes. The incubation mixture contained 50 μL of 0.2 mg/mL of CLM, 10 μL of 0.1 M phosphate buffer (pH 7.4), 40 μL of 1 mM NADPH and six probe substrates with a total volume of 200 μL. The specific probe substrates used for each CYP450 isoenzyme in the incubation mixture were as follows: PH (CYP1A2), BP (CYP2B6), CLN (CYP2E1), TBD (CYP2C9), CAN (CYP2A6), and MDZ (CYP3A4). Probes substrates were dissolved in methanol as stock solution (1 mg/mL). All of them were diluted to the final concentrations (see Supplemental Materials) with incubation buffer and the percentage of organic solvent in the final incubation volume was below 1% (v/v). Briefly, the mixture was preincubated in a thermoshaker (Biosan, Geraardsbergen, Belgium) for 5 min at 37 °C prior to the initiation of the reaction with NADPH.4Na. After incubation, the mixture was terminated by 400 μL ice-cold acetonitrile. […] A volume of 5 µL of supernatant was analysed using UHPLC-MS/MS.

[2] = test system: CYP450 in chicken liver microsomes; test: in vitro; details: read-out: IC50 values in chicken liver microsomes (all CYP450 isoforms tested)
Method: as §1

[3] = rat, in vivo, po, cited from earlier work
[4] = in vivo, 5 mg/kg; cited from earlier work
[5] = in vivo, cited from earlier work
[6] = design: species or system broiler chickens (Ross 308); details: in vivo
[7] = in vivo, po; cited from earlier work
[8] = test system: CYP1A2 (PH), CYP2B6 (BP), CYP2E1 (CLN), CYP2C9 (TBD), CYP2A6 (CAN), CYP3A4 (MDZ); test: in vitro; details: chicken, pH 7.4
Method: as §1, with “The incubation mixture contained 50 μL of 0.2 mg/mL of CLM, 10 μL of 0.1 M phosphate buffer (pH 7.4), 40 μL of 1 mM NADPH and six probe substrates with a total volume of 200 μL. The specific probe substrates used for each CYP450 isoenzyme in the incubation mixture were as follows: PH (CYP1A2), BP (CYP2B6), CLN (CYP2E1), TBD (CYP2C9), CAN (CYP2A6), and MDZ (CYP3A4).” left out
(§2) Enzyme kinetic studies were conducted for the six CYP450-related probes reactions. For each probe, the maximum rate of the Vmax and Km were obtained using GraphPad Prism v.8.0.2 software via Michaelis-Menten Kinetic model (La Jolla, CA, USA). The incubation times of 5, 10, 15, 30, 45 and 60 min were tested individually. A series of protein concentrations (0.05, 0.1, 0.2, 0.4, 0.6, 0.8 and 1 mg/mL) of CLM in the incubation mixture were conducted. Triplicate analyses were performed for each incubation system.

[9] = test system: chicken liver microsomes (CYP450); test: in vitro
Method: as §1, with “The incubation mixture contained 50 μL of 0.2 mg/mL of CLM, 10 μL of 0.1 M phosphate buffer (pH 7.4), 40 μL of 1 mM NADPH and six probe substrates with a total volume of 200 μL. The specific probe substrates used for each CYP450 isoenzyme in the incubation mixture were as follows: PH (CYP1A2), BP (CYP2B6), CLN (CYP2E1), TBD (CYP2C9), CAN (CYP2A6), and MDZ (CYP3A4).” left out
as §2

CYP2A6 [10] = details: read-out: Km of CYP2A6; turkey; CAN as substrate; cited from earlier work
CYP1A2, CYP3A4 = details: cited from earlier work

Compound: COc1cc2c(c3oc(=O)c4c(c13)CCC4=O)[C@@H]1C=CO[C@@H]1O2 [AFB1, aflatoxin B1]
- adverse health effects in broilers (broilers): No significant adverse health effects
- IC50 (CYP2A6 [1]): 24.1 µM
- IC50 [2]: > 7.6 µM
- AUC0–24 ([3]; 1 mg/kg): 45.59 ± 17.19 ng·h/mL
- CL ([3]; 1 mg/kg): 372.2 ± 163 mL/min/kg
- Cmax ([3]; 1 mg/kg): 93.42 ± 23.01 ng/mL and 90 ± 20 ng/mL
- Tmax ([3]; 1 mg/kg): about 0.15 h
- Vd ([3]; 1 mg/kg): 226.46 ± 100.76 L/kg
- T1/2e [3]: 7.62 h
- time for depletion in chicken liver, kidney, and muscle [4]: 10 to 19 days
- AUC0–t ([5]; human): 0.0256 ± 0.0063 ng·h/mL
- T1/2β ([5]; human): 64.4 h
- Tmax ([5]; human): 1.02 ± 0.31 h
- T1/2α [5]: 2.86 h
- AUCINF_obs, Control [6]: 94.2 ± 40.4 ** h·ng/mL
- AUCINF_obs, Treatment [6]: 265.8 ± 222.9 ng·h/mL
- AUClast, Control [6]: 87.5 ± 39.6 ** h·ng/mL
- AUClast, Treatment [6]: 170 ± 103.6 ng·h/mL
- CL_F_obs, Control [6]: 238 ± 112 mL/min/kg
- CL_F_obs, Treatment [6]: 157 ± 108 mL/min/kg
- Cmax, Control [6]: 29.3 ± 3.2 ng/mL
- MRTlast, Control [6]: 4.7 ± 0.7 h
- MRTlast, Treatment [6]: 6.4 ± 3.2 h
- T1/2λz, Treatment [6]: 1.4 ± 0.5 h
- Tmax, Treatment [6]: 0.3 ± 0.1 h
- Vd_F_obs, Control [6]: 14.8 ± 4.8 L/kg
- Vd_F_obs, Treatment [6]: 18.4 ± 7.7 L/kg
- increase of AUClast of AFB1 by TIA [6]: 194%
- increase of mean residence time (MRT) of AFB1 by TIA [6]: 136%
- Cmax [7]: 3.8 ± 0.9 ng/mL
- MRT [7]: 11.73 ± 0.94 h
- T1/2e [7]: 15.52 ± 0.51 h
- Tmax [7]: 0.58 ± 0.17 h

Compound: O=c1ccc2ccccc2o1 [Coumarin]
- Km ([8]; broiler): 56.1 µM
- Km [8]: 56.1 µM
- Vmax ([9]; chicken liver microsomes, Michaelis-Menten, PH (CYP1A2), BP (CYP2B6), CLN (CYP2E1), TBD (CYP2C9), CAN (CYP2A6), MDZ (CYP3A4), n = 3): 190.8 nmol/min/mg
- Km (CYP2A6 [10]): 33.6 ± 8.52 µM

Compound: CCCCNC(=O)NS(=O)(=O)c1ccc(C)cc1 [Tolbutamide]
- Vmax [9]: 159.4 nmol/min/mg

Compound: CCOc1ccc(NC(C)=O)cc1 [Phenacetin]
- Km ([8]; broiler): 20.7 µM
- Km [8]: 20.7 µM
- Vmax [9]: 63.1 nmol/min/mg
- Km (CYP1A2, CYP3A4): 98.1 ± 18.6 µM

Compound: Cc1ncc2n1-c1ccc(Cl)cc1C(c1ccccc1F)=NC2 [Midazolam]
- Km ([8]; broiler): 3.3 µM
- Km [8]: 3.31 µM
- Vmax [9]: 37.7 nmol/min/mg

— paper PMC10974768 (Toxins, 2024)
